Measurements taken from US20120270914A1, “SPLIT-LUCIFERASE C-MYC SENSOR AND USES THEREOF” (THE BOARD OF TRUSTEES OF THE LELAND STANFORD JUNIOR …, priority 2011, published 2012).

Experiments:
[1] = tested on: c-Myc; experiment: Drug inhibition assay: BLI of SKBR3 stable cells constitutively expressing the c-Myc sensor (SK ST), normalized to full-length FL cells (SK FST); assay type: cell-based, human; conditions: for reduction in complemented FL activity compared between drugs: SK ST cells normalized to SK FST cells; for complemented FL activity: SK ST cells, after normalization to effect on FL activity of SK FST cells, PD98059 2 h, U0126 1 h, AT 16 h
Protocol: (§1) To test the ability of the sensor to monitor c-Myc phosphorylation levels on drug treatment, the SKBR3 and 293T stable cells (SK ST and 293T ST) were established that constitutively express the sensor. SKBR3 and 293T stable cells were also constructed that constitutively express the full-length FL (SK FST and 293T FST) for the control of direct drug effect on FL activity.
(§2) Luciferase Activity Assay: BLI of luciferase activity in intact cells was performed as described previously (Hann (2006) Semin Cancer Biol 16(4):288-302). In brief, 24 h after transfection, culture medium was replaced with a PBS solution (pH 7.0) of 45 μg/mL D-Luc for FL imaging or of 10 μg/mL of Clz for RL imaging with the IVIS BLI system (Xenogen). Images were acquired at 2-min intervals until the peak signal was reached. The photon output of FL or RL imaging in transiently transfected cells was normalized to co-expressed RL or FL activity, respectively, measured by an in vitro luminometry assay as described previously (Chan et al. (2008) Cancer Res. 68:216-226), then normalized to the total protein in the cell lysates, measured by the BioRad DC protein assay as directed by the manufacturer. In stable cells, the photon output of FL imaging was normalized to the total protein in the cell lysates.
(§3) Drug Inhibition Assay: SKBR3 stable cells constitutively expressing the sensor system (SK ST) or the full-length FL (SK FST) were treated with PD98059 (Cell Signaling) for 2 h, U0126 (Cell Signaling) for 1 h, and purified AT (Sequoia Research Products) for 16 h at the indicated concentrations and imaged with D-Luc in the IVIS 50 BLI system (FIGS. 6A and 6B, and FIGS. 10A-12D). In addition, 293T stable cells constitutively expressing the sensor system (293T ST) or the full-length FL (293T FST) were treated with AT for 16 h at the indicated concentrations (FIGS. 6A and 6B, and FIGS. 13A-13D) and imaged with D-Luc in the IVIS 50 system. The photon output of FL imaging was normalized to the total protein content, and the FL activity of SK ST or 293T ST was normalized to that of SK FST or 293T FST, respectively. SKBR3 and 293T cells were treated as above and lysed for Western blot analysis of phospho c-Myc, c-Myc, and β-actin proteins. The correlation coefficient between the fold change of normalized FL activity and the fold change of normalized phospho c-Myc level (phospho c-Myc/β-actin) was determined based on the R^2 value.

[2] = tested on: c-Myc; experiment: Western blot analysis of endogenous phospho c-Myc in SKBR3 cells; assay type: cell-based, human; conditions: for endogenous c-Myc phosphorylation level: Western blot
Protocol: (§4) FIGS. 26A and 26B illustrate the inhibition of endogenous c-Myc. FIG. 26A: Western blot analysis of SKBR3 cells after NTZ treatment was performed using phospho c-Myc, c-Myc protein, and β-actin antibodies. […] The fold-change of phospho c-Myc level was plotted against the log scale of NTZ concentration.
(§5) Western Blot Analysis: Total cell lysates were collected using 1× cell lysis buffer (Cell Signaling), as directed by the manufacturer. The protein concentration was determined using the BioRad DC protein assay. SDS/PAGE analysis of 50 μg of protein was transferred to an lmmobilon-P membrane (Millipore). Anti-phosphor-c-Myc (Thr58/Ser62) and anti-c-Myc antibody (Cell Signaling) were used to visualize the phospho c-Myc and c-Myc protein, respectively, as directed by the manufacturer. Anti-FLuc-HRP antibody was used to detect the FL fragments, as directed by the manufacturer (Sigma-Aldrich). β-actin protein was used as a loading control and detected by anti-β-actin antibody (Sigma-Aldrich). Immunoblots were developed using the Pierce ECL Kit, as directed by the manufacturer. Protein levels were determined by quantifying the band intensities on Western blot analysis using ImageJ's ROI manager.
as §3

[3] = tested on: c-Myc; conditions: Hydbring et al. 2009; cited from earlier work
[4] = tested on: NFL-c-MycS62A mutant sensor; experiment: BLI of SKBR3 cells transiently transfected with the S62A mutant sensor; assay type: cell-based, human; conditions: PD98059 1 h
Protocol: FIG. 14A is a digital image showing the NFL-c-Myc WT construct or the NFL-c-MycS62A mutant construct transiently transfected into SKBR3 cells with GSK 35-433-CFL construct and subjected to PD98059 of indicated concentration for 1 h, followed by BLI.
FIG. 14B is a graph showing FL activity normalized to co-transfected RL activity and the total protein content and plotted against the drug concentration.
These differential signal inhibitions also were correlated with the decreased endogenous c-Myc phosphorylation level, as shown in FIG. 6A.

[5] = tested on: c-Myc; experiment: Phospho c-Myc level in lymphoma cells; assay type: cell-based; conditions: read-out: IC50, inhibition of phospho c-Myc level
Protocol: as §4

[6] = tested on: c-Myc; experiment: Phospho c-Myc level in sarcoma cells; assay type: cell-based; conditions: read-out: IC50, inhibition of phospho c-Myc level
Protocol: as §4

[7] = tested on: SK-ST subcutaneous tumor xenograft; experiment: SK-ST subcutaneous tumor xenograft mouse model under NTZ treatment; assay type: in vivo; conditions: NTZ vs CMC treated groups, up to 27 days after implantation
Text: FIGS. 27A and 27B illustrate the efficacy of NTZ in a SK-ST subcutaneous tumor xenograft mouse model. FIG. 27A: SK-ST stable cells were subcutaneously implanted as indicated and treated with NTZ or CMC. Representative images of FL imaging at indicated days of treatment are shown. FIG. 27B: Photon output of SK-ST cells with NTZ or CMC treatment is plotted against days after implantation. * P<0.05. […] FIG. 28A: Representative photographs of removed tumors from CMC or NTZ treated mice 27 days after implantation. FIG. 28B: Plot of caliper measured tumor sizes of NTZ or CMC treated groups at different days after implantation. *P<0.05, **P<0.01. FIGS. 29A and 29B illustrate immunohistochemistry and western blot analysis of NTZ treated tumor samples. FIG. 29A: Representative images of H&E, Ki67 and caspase-3 IHC staining of tumor tissue samples from each group. FIG. 29B: Western blot analysis of tumor tissue samples using phospho c-Myc, c-Myc and α-tubulin antibodies.

[8] = tested on: c-Myc; experiment: Drug inhibition assay: BLI of 293T stable cells expressing the c-Myc sensor (293T ST), normalized to 293T FST; assay type: cell-based, human; conditions: 293T ST cells; after normalization to FL activity of 293T FST cells; AT 16 h
Protocol: as §1
as §2, with “lysates. […]” for “lysates.”

[9] = tested on: c-Myc; experiment: Western blot analysis of endogenous phospho c-Myc in 293T cells; assay type: cell-based, human
Protocol: as §5, with “Immunoblots were developed using the Pierce ECL Kit, as directed by the manufacturer.” left out
Drug Inhibition Assay: SKBR3 stable cells constitutively expressing the sensor system (SK ST) or the full-length FL (SK FST) were treated with PD98059 (Cell Signaling) for 2 h, U0126 (Cell Signaling) for 1 h, and purified AT (Sequoia Research Products) for 16 h at the indicated concentrations and imaged with D-Luc in the IVIS 50 BLI system (FIGS. 6A and 6B, and FIGS. 10A-12D). […] The correlation coefficient between the fold change of normalized FL activity and the fold change of normalized phospho c-Myc level (phospho c-Myc/β-actin) was determined based on the R^2 value.

[10] = tested on: c-Myc; experiment: Hydrodynamic injection of the c-Myc sensor and BLI in Eμ-tTA/Tet-O-MYC transgenic mice; assay type: in vivo
Text: To test the in vivo application of the sensor system, SKBR3 cells were first transiently transfected separately with equal DNA molar amounts of the vectors pcDNA3.1(+), GSK 35-433-CFL/NFL-c-Myc or GSK 35-433-CFL/NFL-c-Myc T851 and implanted them subcutaneously in different locations in each nude mouse (n=3; FIG. 7A). hRL was also co-expressed for control of transfection efficiency. […] However, on intraperitoneal injection of the FL substrate D-Luciferin (D-Luc), xenografts carrying pcDNA3.1(+) had very low complemented FL activity, whereas those carrying GSK 35-433-CFL/NFL-c-Myc had 10.6-fold higher activity. Those carrying GSK 35-433-CFL/NFL-c-Myc T851 had 4.7-fold higher activity after normalization to their hRL activity (FIG. 7C). Thus, the complemented FL activity determined by the phosphorylation status of NFL-c-Myc can be imaged and quantified in a mouse xenograft model. The sensor system was also transiently expressed in the liver of two transgenic mice using hydrodynamic injection. These mice carried a liver-specific transgene of c-Myc under control of the Tet system (Shachaf et al. (2007) Blood 110: 2674-2684).
Both mice had doxycycline discontinued, followed by a 29-day course of treatment with AT in one mouse and with PBS in the other mouse. […] This signal reduction was consistent with the reduced endogenous c-Myc phosphorylation and the histological changes in the liver tissue samples (FIG. 7E).
Hydrodynamic Injection: Eμ-tTA/Tet-O-MYC transgenic mice (Shachaf et al. (2007) Blood 110: 2674-2684) (n=2) were removed from doxycycline treatment at 8 wk of age and underwent gavage with AT or PBS as described above. At 29 d after treatment, these two mice underwent imaging studies to characterize the liver phospho c-Myc level after hydrodynamic injection (Frame et al., (2001) Mol. Cell 7: 1321-1327) of the c-Myc sensor. […]

[11] = tested on: SK ST and SK FST xenografts; experiment: BLI of SK ST and SK FST subcutaneous xenografts in nude mice under AT treatment; assay type: in vivo
Protocol: The mice underwent gavage with AT (20 μL, 1.25 mM; n=5) or with PBS (20 μL; n=5) every other day.
BLI of Living Mice: BLI of mouse xenografts was performed with the IVIS Spectrum optical imaging system (Xenogen) as described previously (Chan et al. (2008) Cancer Res. 68:216-226, incorporated herein by refrence in its entirety), with some modifications. At 4 h after transient transfection with the indicated constructs (FIG. 7A), 5×10^6 SKBR3 cells were implanted subcutaneously into the indicated locations of nude mice (nu/nu; n=3). At 16 h after cell implantation, a Clz PBS (0.3 μg/μL; 100 μL) solution was injected intravenously for RL imaging. Then, 8 h later, FL imaging was acquired with D-Luc PBS solution (45 μg/μL; 100 μL) via intraperitoneal injection. Subsequently, 5×10^6 each of SK ST and SK FST cells were implanted subcutaneously into nude mice (nu/nu; n=10) as indicated (FIG. 8A). FL imaging was performed 1 day after the implantation and every other day thereafter. After each FL imaging, half of the mice underwent gavage with AT PBS solution (1.25 mM; 20 μL), and the other half did so with PBS only (20 μL). After 23 d of treatment, the mice were killed, and xenograft tissue samples were collected for Western blot analysis of phospho c-Myc, c-Myc, and α-tubulin proteins.

[12] = tested on: c-Myc; conditions: Shachaf et al. 2007; cited from earlier work

In the case of `N#CC(=C(/N)Sc1ccccc1N)/C(C#N)=C(\N)Sc1ccccc1N` [U0126], the “reduction in complemented FL activity compared between drugs” value [1] is reported as “greater reduction than PD98059”, the “complemented FL activity” value [1] is reported as “dose-dependent reduction” and the “endogenous c-Myc phosphorylation level” value [2] is reported as “decreased”. The “c-Myc phosphorylation level in vitro” value [3] was “decrease”.

For `COc1cccc(-c2cc(=O)c3ccccc3o2)c1N` [PD98059], the “complemented FL activity” value [1] was “dose-dependent reduction”, the “response of mutant sensor to phosphorylation inhibition of c-Myc” value [4] was “did not respond” and the “endogenous c-Myc phosphorylation level” value [2] was “decreased”. For the same compound, the “c-Myc phosphorylation level in vitro” value [3] was “decrease”.

For `CC(=O)Oc1ccccc1C(=O)Nc1ncc([N+](=O)[O-])s1` [NTZ, nitazoxanide], the “luciferase activity when cells are exposed to nitazoxanide” value ([1]; in vitro validation of the assay system) was “decrease in luciferase activity”, the IC50 ([2]; read-out: IC50, inhibition of phospho c-Myc level) was 122 nM and the IC50 [5] was 440 nM. The IC50 [6] was 12 nM and the “tumor growth (caliper measured tumor sizes)” value [7] was “inhibition of tumor growth”.

For `CC(C)c1c(C(=O)Nc2ccccc2)c(-c2ccccc2)c(-c2ccc(F)cc2)n1CC[C@@H](O)C[C@@H](O)CC(=O)O` [AT, Atorvastatin], the “reduction in complemented FL activity compared between drugs” value [1] was “greater reduction in complemented FL activity with lower drug concentrations than did U0126”, the “complemented FL activity” value [1] was “dose-dependent reduction” and the “complemented FL activity” value [8] was “dose-dependent increase”. The “endogenous c-Myc phosphorylation level” value [2] was “decreased”, the “endogenous c-Myc phosphorylation level” value [9] was “increase” and the liver tumor size ([10]; 29-day treatment, AT vs PBS, one mouse each) was “no significant difference”. The “endogenous c-Myc phosphorylation in liver tissue samples” value ([10]; Western blot after 29-day treatment) was “reduced”, the “complemented FL activity in liver” value ([10]; on addition of D-Luc, AT vs PBS treated mouse) was “much lower” and the “c-Myc phosphorylation levels in tumor tissue samples” value ([11]; 23 d after implantation, Western blot) was “decreased”. The “sensor signal (complemented FL activity of SK ST normalized to SK FST)” value ([11]; AT group) was “sustained decrease”, the tumor size ([11]; AT vs PBS group) was “no detectable difference” and the tumor growth ([11]; eventual effect of AT) was “reduced tumor growth”. The “complemented FL activity of SK ST xenografts” value ([11]; from 10 d after implantation, gavage AT 20 μL 1.25 mM every other day) was “increased only slightly”, the “FL activity of SK FST xenografts” value ([11]; up to about 18 d after implantation) was “higher in the PBS-treated group compared with the AT-treated group” and the c-Myc-induced lymphomagenesis [12] was “preventing”. The “phosphorylation of c-Myc” value [12] was “reduce”.
